The values below come from patent publication US10934277B2, “Enantiomerically purified GPER agonist for use in treating disease states and conditions” (Linnaeus Therapeutics, Inc., priority 2018, dated 2021).

The structures appear in SMILES notation. Converted amounts (≈) assume the structure as drawn. “And” between values parts separate entries of the source, which are not always exact repeats. Equal values may be shown once. Where only a bound is given, the exact number is not on record here.

One data set concerns the target OPRD1 (Homo sapiens, UniProt P41143). Put plainly: Off target selectivity assay, OPRD1. In kind it is cell-based. Particulars: dose response, concentrations up to 10 μM; read-out: IC50 or EC50 on OPRD1. The method, then: (§1) Final assay vehicle concentration was 1%.
(§2) For Gi coupled GPCRs, EC80 forskolin was included.
(§3) DMSO concentration for all readouts is ≤0.2%.
(§4) Probenicid was prepared fresh. Cells were loaded with dye prior to testing.

A short description of data set [1]: Kinetic solubility measurement in bio-relevant media. The format is physicochemical. Particulars: FeSSIF.
Data set [2] can be described thus: Solubility measurement in pH buffers. The format is physicochemical.
Data set [3] is described as follows: LogD7.4 by shake-flask method (pH 7.4 phosphate buffer / n-octanol). The format is physicochemical. Particulars: for Concentration in pH buffer 7.4: aqueous phase. The method, then:
Log D7.4 was measured with the solvent systems of pH 7.4 phosphate buffer and n-octanol by shake-flask method.

The target in the next data set is HTR2B (Homo sapiens, UniProt P41595). Put plainly: Off target selectivity assay, HTR2B. The format is cell-based. As to conditions: dose response, concentrations up to 10 μM; read-out: IC50 or EC50 on HTR2B. The method, then:
as §1, §2, §3, §4

Another data set in a line: pKa titration test. Particulars: range of 3-11. In kind it is physicochemical.
In the next data set the target is OPRM1 (Homo sapiens, UniProt P35372). Put plainly: Off target selectivity assay, OPRM1. In kind it is cell-based. Particulars: dose response, concentrations up to 10 μM; read-out: IC50 or EC50 on OPRM1. The method, then:
as §1, §2, §3, §4

The target of the next data set is T1, OCT2 (Homo sapiens, UniProt O15244).
T1 sequence (O15244 1-555): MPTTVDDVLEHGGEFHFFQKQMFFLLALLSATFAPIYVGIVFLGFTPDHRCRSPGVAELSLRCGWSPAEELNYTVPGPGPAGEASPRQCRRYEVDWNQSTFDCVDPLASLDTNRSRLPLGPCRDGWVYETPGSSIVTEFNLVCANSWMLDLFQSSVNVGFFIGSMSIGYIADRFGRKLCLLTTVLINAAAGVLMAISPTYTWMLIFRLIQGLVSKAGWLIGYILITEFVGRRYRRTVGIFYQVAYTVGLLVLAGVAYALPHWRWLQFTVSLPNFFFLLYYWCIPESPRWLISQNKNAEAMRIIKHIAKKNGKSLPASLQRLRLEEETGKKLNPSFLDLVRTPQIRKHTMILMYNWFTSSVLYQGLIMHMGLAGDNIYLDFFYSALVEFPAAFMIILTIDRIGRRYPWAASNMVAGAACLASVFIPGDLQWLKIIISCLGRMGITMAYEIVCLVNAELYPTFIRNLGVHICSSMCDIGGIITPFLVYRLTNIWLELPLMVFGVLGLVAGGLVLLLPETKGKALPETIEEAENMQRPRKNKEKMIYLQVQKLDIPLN
Put plainly: Drug transporter fluorometric inhibition, OCT2. In kind it is in vitro ADME. The method, then:
(§5) Drug transporter (fluorometric inhibition)
(§6) The percent of control was calculated using the following equation. The percent of inhibition was calculated by subtracting the percent of control from 100. The IC50 value (concentration causing a half-maximal inhibition of the control value) was determined by non-linear regression analysis of the concentration-response curve using the Hill equation.
(§7) Compound is the individual reading in the presence of the test compound. T1 is the mean reading in the absence of the test compound. Background (for P-gp and BCRP) is the mean reading in the presence of the highest effective concentration of the reference inhibitor. Background (for OATP1B1, OATP1B3, OAT1, OAT3, and OCT2) is the mean reading in the absence of both the test compound and the substrate.

In a further data set the target is T2, HTR1A (Homo sapiens, UniProt P08908).
T2 sequence (P08908 1-422): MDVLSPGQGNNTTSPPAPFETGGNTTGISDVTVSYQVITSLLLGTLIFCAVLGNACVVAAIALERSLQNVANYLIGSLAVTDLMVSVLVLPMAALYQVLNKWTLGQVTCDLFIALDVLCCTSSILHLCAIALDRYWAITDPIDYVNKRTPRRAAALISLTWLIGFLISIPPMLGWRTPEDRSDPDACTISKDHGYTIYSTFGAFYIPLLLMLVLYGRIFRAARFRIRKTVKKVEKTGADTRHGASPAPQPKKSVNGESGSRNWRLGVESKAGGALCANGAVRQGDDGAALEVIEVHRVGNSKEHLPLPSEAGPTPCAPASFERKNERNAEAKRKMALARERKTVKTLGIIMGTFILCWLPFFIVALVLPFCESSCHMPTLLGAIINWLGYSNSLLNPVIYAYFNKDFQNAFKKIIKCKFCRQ
Put plainly: Off target selectivity assay, HTR1A. In kind it is cell-based. As to conditions: dose response, concentrations up to 10 μM; read-out: IC50 or EC50 on HTR1A. The method, then: as §1, §2, §3, §4

Another data set deals with T3, OATP1B3 (Homo sapiens, UniProt Q9NPD5).
T3 sequence (Q9NPD5 1-702): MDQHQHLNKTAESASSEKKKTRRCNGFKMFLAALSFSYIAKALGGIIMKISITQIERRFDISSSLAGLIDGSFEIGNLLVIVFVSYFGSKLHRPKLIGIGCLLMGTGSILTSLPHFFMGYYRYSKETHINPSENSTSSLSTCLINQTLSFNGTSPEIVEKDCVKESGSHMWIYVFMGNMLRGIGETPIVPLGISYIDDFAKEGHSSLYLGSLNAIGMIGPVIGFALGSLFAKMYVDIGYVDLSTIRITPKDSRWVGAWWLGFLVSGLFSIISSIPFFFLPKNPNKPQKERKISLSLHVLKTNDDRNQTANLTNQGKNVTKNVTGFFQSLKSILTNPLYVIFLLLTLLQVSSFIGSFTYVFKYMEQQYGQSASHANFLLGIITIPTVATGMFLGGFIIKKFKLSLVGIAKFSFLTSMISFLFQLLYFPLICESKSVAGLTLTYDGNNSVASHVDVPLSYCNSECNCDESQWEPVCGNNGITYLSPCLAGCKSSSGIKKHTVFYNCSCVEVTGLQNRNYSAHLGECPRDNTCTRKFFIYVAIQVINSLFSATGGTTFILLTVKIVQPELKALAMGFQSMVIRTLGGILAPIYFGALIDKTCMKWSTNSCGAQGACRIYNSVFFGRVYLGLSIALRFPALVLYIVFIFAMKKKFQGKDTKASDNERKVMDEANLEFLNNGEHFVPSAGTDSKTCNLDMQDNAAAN
Put plainly: Drug transporter fluorometric inhibition, OATP1B3. In kind it is in vitro ADME. The method, then:
as §5, §6, §7

[4] abbreviates: shake-flask, single samples #1-3.

OPRD1, sequence (P41143 whole entry): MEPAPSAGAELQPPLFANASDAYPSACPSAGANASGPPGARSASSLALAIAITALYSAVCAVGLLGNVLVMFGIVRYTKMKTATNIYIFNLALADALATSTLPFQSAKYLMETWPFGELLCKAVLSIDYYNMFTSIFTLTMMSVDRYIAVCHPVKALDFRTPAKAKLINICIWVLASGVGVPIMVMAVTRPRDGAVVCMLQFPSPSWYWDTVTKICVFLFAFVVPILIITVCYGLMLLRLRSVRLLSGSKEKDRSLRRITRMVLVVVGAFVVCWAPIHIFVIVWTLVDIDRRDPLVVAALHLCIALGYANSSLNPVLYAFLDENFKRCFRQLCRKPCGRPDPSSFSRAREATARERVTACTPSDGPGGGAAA
OPRM1, sequence (P35372 whole entry): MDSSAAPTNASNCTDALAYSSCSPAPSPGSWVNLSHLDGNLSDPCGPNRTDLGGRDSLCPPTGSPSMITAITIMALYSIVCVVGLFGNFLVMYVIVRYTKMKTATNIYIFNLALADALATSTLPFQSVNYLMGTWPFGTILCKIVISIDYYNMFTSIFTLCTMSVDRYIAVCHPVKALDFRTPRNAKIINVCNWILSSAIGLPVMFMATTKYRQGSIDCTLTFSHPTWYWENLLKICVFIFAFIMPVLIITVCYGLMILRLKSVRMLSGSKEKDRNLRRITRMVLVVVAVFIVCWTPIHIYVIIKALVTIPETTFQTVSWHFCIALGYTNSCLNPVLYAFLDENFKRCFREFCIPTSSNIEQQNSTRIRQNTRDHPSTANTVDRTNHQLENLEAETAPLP
HTR2B, sequence (P41595 whole entry): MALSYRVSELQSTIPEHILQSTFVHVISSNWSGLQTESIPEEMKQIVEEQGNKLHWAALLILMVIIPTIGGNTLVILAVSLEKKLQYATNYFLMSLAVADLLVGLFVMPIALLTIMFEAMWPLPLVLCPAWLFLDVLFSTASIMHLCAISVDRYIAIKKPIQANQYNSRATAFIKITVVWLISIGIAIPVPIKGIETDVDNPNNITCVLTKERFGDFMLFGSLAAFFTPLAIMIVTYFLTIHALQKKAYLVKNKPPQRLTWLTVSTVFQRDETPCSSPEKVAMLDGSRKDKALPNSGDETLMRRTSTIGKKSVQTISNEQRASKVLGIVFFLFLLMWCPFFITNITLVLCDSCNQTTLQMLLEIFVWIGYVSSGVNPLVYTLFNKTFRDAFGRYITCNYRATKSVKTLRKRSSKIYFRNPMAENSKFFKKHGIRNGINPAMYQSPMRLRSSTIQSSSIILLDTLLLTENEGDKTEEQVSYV

As to `CC(=O)c1ccc2c(c1)[C@@H]1C=CC[C@@H]1[C@H](c1cc3c(cc1Br)OCO3)N2` (single isomer, unassigned) [SRR G-1], the IC50 at OPRD1 was found to be 0.87 µM; on HTR2B it was 8.2 µM; at OPRM1, 6.68 µM. In data set [1] (SGF, FaSSIF, after 1, 2, 4 and 24 hrs), the “form change in the three bio-relevant media” value was “No form change was observed”. For the same compound, the solubility in data set [1] (pH 5, thermodynamic from solid, 37° C., read-out: highest solubility, observed in FeSSIF) was roughly 37 µg/mL (≈ 89.7 µM). Further, in data set [2] (pH 2, aqueous buffer, thermodynamic from solid, all pH buffers 2.0 to 8.0, 37° C., 24 hrs, read-out: solubility at pH 2.0-8.0), the solubility at 24 h was less than 0.72 µg/mL. Further, the “form change in all the pH buffers” value in data set [2] (pH 2.0 to 8.0, after 24 hrs) was “No form change was observed”. Besides, the “LogP*” value in data set [3] (LogP = LogD(pH) + Log [1 + 10^(pKa −pH)]) is reported as greater than 3.22. Further, the logP in data set [3] (n-octanol / pH 7.4 phosphate buffer, pH 7.4, LogP = LogD(pH) + Log [1 + 10^(pKa −pH)]) was greater than 3.22. This compound also had a logD in data set [3] (n-octanol / pH 7.4 phosphate buffer, shake-flask, pH 7.4 phosphate buffer and n-octanol) greater than 3.22. Further, the “Concentration in pH buffer 7.4” value in data set [3] (setting [4]) is given as less than 0.82 μg/mL; in [3] (shake-flask, single samples #1-3, listed as SRR G-1 freebase), less than 0.82 μg/mL. The “Average of LogD7.4” value in data set [3] (shake-flask, pH 7.4 phosphate buffer and n-octanol) was greater than 3.22. Besides, the Concentration in n-octanol in [3] (setting [4]) was 1370 µg/mL and 1340 µg/mL. The LogD7.4 in data set [3] (setting [4]) was >3.22 and >3.21. The pKa by titration result in the data set “pKa titration test” is “no pKa value was observed”.
Take `CC(=O)c1ccc2c(c1)[C@H]1C=CC[C@H]1[C@@H](c1cc3c(cc1Br)OCO3)N2` [RSS G-1, 1-((3aR,4S,9bS)-4-(6-bromobenzo[d][1,3]dioxol-5-yl)-3a,4,5,9b-tetrahydro-3H-cyclopenta[c]quinolin-8-yl)ethan-1-one]: the inhibition at 10 µM against OCT2 came to 53.2%; against OATP1B3 it was 74.3%. For the same compound, the IC50 on HTR1A was 2.1 µM.

What is called IC50 is the concentration at which inhibition is half-maximal. For orientation: solubility means the dissolved amount per volume that the medium holds. One may read the logP as a log measure of how a compound divides between an organic and an aqueous phase. The term logD denotes the decadic logarithm of the distribution of all forms, ionised or not, between an organic phase and buffer at a given pH. Lower therefore signals lower lipophilicity. What is called inhibition is the relative decrease from the control value, in per cent. Read a high inhibition as a strong effect.
